According to paper PMC2939063, “In Vitro and In Vivo Studies of the Trypanocidal Properties of WRR-483 against Trypanosoma cruzi” (PLoS Neglected Tropical Diseases, 2010):
Values joined by “and” are separate entries in the source; they are usually repeats but may differ in a detail not shown here. Equal entries are not always repeated.

Tests used:
Cruzain = biological target: T1, Cruzain (Trypanosoma cruzi, UniProt P25779); assay: Cruzain enzyme assay (acetate buffer pH 5.5, Z-Phe-Arg-AMC); type: biochemical; details: 100 mM sodium acetate pH 5.5, 5 mM DTT
T1 construct: made in house
Procedure: Cruzain[27],[28], rhodesain [29], and tbcatB [30] were recombinantly expressed as described previously. TbcatB assays were performed as described previously.[31] Cruzain (2 nM) or rhodesain (3 nM) was incubated with 0.5 to 10 µM inhibitor concentration in 100 mM sodium acetate at pH 5.5, containing 5 mM DTT (buffer A) for 5 min at room temperature. Then buffer A containing Z-Phe-Arg-AMC (Bachem, K M = 1 µM) was added to enzyme inhibitor to give 20 µM substrate concentration in 200 µL, and the increase in fluorescence (excitation at 355 nm and emission at 460 nm) was followed with an automated microtiter plate spectrofluorometer (Molecular Devices, Flex station). Inhibitor stock solutions were prepared at 20 mM in DMSO, and serial dilutions were made in DMSO (0.7% DMSO in assay). Controls were performed using enzyme alone and enzyme with DMSO. IC50 values were determined graphically using inhibitor concentrations in the linear portion of a plot of inhibition versus log[I] […]
Inhibitor dilutions which produce simple exponential progress curves over a wide range of k obs, were used to determine kinetic parameters. The value of k obs, the rate constant for loss of enzyme activity, was determined from an equation for pseudo first order dynamics using Prism 4.0 (GraphPad). When k obs varied linearly with inhibitor concentration, k ass was determined by linear regression analysis. […]

[1] = tested on: T. cruzi infection in BESM cells; assay: Dose-response against T. cruzi infection in BESM cells; type: cell-based, Trypanosoma cruzi CA-I/72; details: Trypanosoma cruzi, 72 h
Procedure: Monolayers were then infected with 1000 trypomastigotes/well of CA-I/72 T. cruzi for 2 h at 37°C. […] Cultures were then incubated for 72 h at 37°C in a humidified atmosphere with 5% CO2. Cultures were next fixed in 4% fresh paraformaldehyde in PBS, stained with DAPI, and counted under a fluorescence microscope (400×). Mean numbers of parasites per cell (±SE) were calculated as previously reported (n = 3-4 per concentration). Controls consisted of untreated wells and cultures similarly treated with 10 μM […] and 0.1 μM posaconazole.

Cathepsin B = biological target: T2, Cathepsin B (Homo sapiens, UniProt P07858); assay: Protease inhibition profiling (Reaction Biology Corp): Cathepsin B; type: biochemical
T2 construct: Reaction Biology Corp (screening service)

Cathepsin K = biological target: T3, Cathepsin K (Homo sapiens, UniProt P43235); assay: Protease inhibition profiling (Reaction Biology Corp): Cathepsin K; type: biochemical
T3 construct: Reaction Biology Corp (screening service)
T3 sequence (P43235 115-329): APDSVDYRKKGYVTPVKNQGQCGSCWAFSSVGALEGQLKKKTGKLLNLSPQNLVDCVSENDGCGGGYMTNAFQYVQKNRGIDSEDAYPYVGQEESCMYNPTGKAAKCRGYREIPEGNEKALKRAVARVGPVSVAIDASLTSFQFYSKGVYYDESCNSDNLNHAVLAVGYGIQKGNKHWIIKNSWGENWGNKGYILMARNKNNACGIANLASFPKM

cathepsin H = biological target: T4, cathepsin H (Homo sapiens, UniProt P09668); assay: Protease inhibition profiling (Reaction Biology Corp): cathepsin H; type: biochemical; details: panel of 70 proteases
T4 construct: Reaction Biology Corp (screening service)
T4 sequence (P09668 98-335): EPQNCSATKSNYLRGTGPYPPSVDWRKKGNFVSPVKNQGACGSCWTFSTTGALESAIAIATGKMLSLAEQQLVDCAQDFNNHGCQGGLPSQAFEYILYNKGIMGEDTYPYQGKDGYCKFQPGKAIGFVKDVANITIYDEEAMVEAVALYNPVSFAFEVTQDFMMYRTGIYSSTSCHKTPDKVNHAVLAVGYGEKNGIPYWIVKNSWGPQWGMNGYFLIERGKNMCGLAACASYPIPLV

T1 sequence (P25779 123-337 limits assumed): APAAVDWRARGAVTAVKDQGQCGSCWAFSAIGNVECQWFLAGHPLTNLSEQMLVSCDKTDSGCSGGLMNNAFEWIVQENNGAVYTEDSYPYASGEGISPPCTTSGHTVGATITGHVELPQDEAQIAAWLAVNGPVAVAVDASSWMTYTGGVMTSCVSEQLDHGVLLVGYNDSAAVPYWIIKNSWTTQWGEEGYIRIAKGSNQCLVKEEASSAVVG

CN1CCN(C(=O)N[C@@H](CCCNC(=N)N)C(=O)N[C@H](/C=C/S(=O)(=O)c2ccccc2)CCc2ccccc2)CC1 [WRR-483]
k obs/[I] at 1 µM, Cruzain (Cruzain): 4,800 s^-1 M^-1 and 4,800±480 s^-1 M^-1
EC50 [1]: 200 nM
IC50 (Cathepsin B): 3.9 ± 0.1 nM
IC50, Cathepsin K (Cathepsin K): No inhibition
inhibition of cathepsin H (cathepsin H): no inhibition
